Experimental findings from US5525595A, “3- or 4-glycosyloxybenzopyran derivative and antiallergic agent containing the derivative as active ingredient” (priority 1993, dated 1996) are described below.

Each structure is given as a SMILES string.

Assay [1] deals with homologous passive cutaneous anaphylaxis (PCA) reaction. The experiment in a line: Effect on homologous passive cutaneous anaphylaxis (PCA) reaction in rats. To be noted: Rattus norvegicus, 0.5 h; 100 mg/kg oral, 1 hour before antigen, rats; Table 3. The class given is in vivo, rats (Male wistar rats). As for the experimental part:
This experimental animal model is caused by immediate type allergic reaction, namely, antigen-antibody reaction. In the following, the method of this pharmacological test will be explained.
Method: Male wistar rats (9 weeks old) were intradermally administered 0.05 ml of anti-serum against trinitrophenylated ascaris (TNP-As) into two sites on the shaved dorsal skin. 48 hours later, 3-glycosyloxybenzopyran derivatives and 4-glycosyloxybenzopyran derivatives (test compounds) suspended in 0.5% sodium carboxymethylcellulose (CMCNa) were given orally at a dose of 100 mg/kg to the animals. 1 hour after administration of Test compounds, the animals were induced anaphylaxis by injection of saline (1 ml) dissolving 5 mg of Evans Blue and 1 mg of TNP-As into the tail vein of the animals. 30 minutes after induction of anaphylaxis, animals were anesthetized by ether and killed by bleeding, and were flayed dorsal skin. The leakage of dye was assessed by measuring the diameter (mean of shortest and longest diameter) of the blue spot on the inside surface of dorsal skin. As vehicle control group, only 0.5% CMCNa solution was administered orally, and as positive control group, Tranilast suspended in 0.5% CMCNa were administered orally at a dose of 100 mg/kg to the animals with the same method as the test compounds groups. Each experimental group consisted of 5 rats. [formula] In equation 1: A: leakage of dye in vehicle control group
B: leakage of dye in test compound group or in positive control group
The anti-allergic activity of the compounds of the present invention were compared with that of analogous compounds which were published in the Patent (EP-A-0598117) by PCA reaction. This pharmacological test was performed according to the method described in Test Example 1.

Assay [2] deals with airway resistance in experimental asthma model. Kind of assay: Effect on experimental asthma model in guinea pigs. It is filed as in vivo, guinea pigs (Male hadley). The following applies: Cavia porcellus; 100 mg/kg oral, OVA challenge, guinea pigs; Table 7. The method, then: The asthma is typical allergic disease and we carried out this pharmacological test by well known experimental asthma model in guinea pigs in order to confirm that the compounds of the present invention suppress the asthma. In the following, the method of the pharmacological test will be explained.
Method: Male hadley guinea pigs were immunized by intraperitoneal injection of saline (1 ml) containing 5 mg of ovalbumine (OVA) three times at interval of one week. 2 weeks after final immunization, the animals were challenged by inhalation of 1% OVA-saline solution for 1 minute and then the airway resistance of the animals were measured for 30 minutes with PULMOS-1 (Medical Interface Project Station Inc.) after the inhalation. The compounds of the present invention (test compounds) suspended in 0.5% CMCNa were given orally at a dose of 100 mg/kg. As positive control group, Disodium Cromoglicate (DSCG), well known anti-allergic agent, in saline were injected at a dose of 20 mg/kg into the vein of the animals. As vehicle control group, only 0.5% CMCNa solution were given orally. The inhibition (%) of the airway resistance in vehicle control group was calculated according to equation 5 and the result was shown in Table 7. Each experimental group consisted of 5 guinea pigs. [formula] In equation 5: A: Maximum airway resistance in vehicle control group
B: Maximum airway resistance in test compounds group or positive control group

Assay [3] deals with contact dermatitis induced by picryl chloride. Kind of assay: Effect on contact dermatitis induced by picryl chloride in mice (delayed type hypersensitization). It is filed as in vivo. The following applies: Mus musculus; 100 mg/kg oral, ear thickness 24 hours after challenge; Table 6; read-out: Inhibition (%) against the increase of ear thickness. As for the experimental part:
The delayed type hypersensitization is inhibited by steroid, but can not be effected by known anti-allergic agents. In the following, the method of the pharmacological test will be explained.
Method: Mice, shaved their abdominal skin on previous day, were immunized by applying 0.1 ml of acetone containing 7 mg of picryl chloride to the skin of the abdomen. 7 days after immunization, the thickness of the ear was measured with a dial thickness gauge, then mice were challenged by painting 5 μl of 1% picryl chloride olive oil solution to each side skin of left ear. 24 hours after challenge, the thickness of the left ear was measured again and the increase (%) of thickness was calculated according to equation 2. The compounds of the present invention (test compounds) suspended in 0.5% CMCNa were forcibly administered orally at a dose of 100 mg/kg at 1 hour before and 16 hours after challenge. As vehicle control group, only 0.5% CMCNa solution were administered orally, and as positive control group, Prednisolone, steroid hormone, and Tranilast were administered orally at the doses of 10 mg/kg and 100 mg/kg, respectively.
Increase (%)=(A-B)/B×100 (Equation 2)
A: thickness of the ear at 24 hours after challenge
B: thickness of the ear before challenge
Inhibition(%)=(C-D)/C×100 (equation 3)
C: The increase (%) in vehicle control group
D: The increase (%) in test compounds group or positive control group

As for `CCCCCCOc1ccc2c(O)c(O[C@@H]3O[C@H](CO)[C@H](O)[C@H](O)[C@H]3O)c(=O)oc2c1` [compound 41], the inhibition in vivo at 100 mg/kg in assay [1] is 60.8%; in assay [2] it was 77.7%; in assay [3] it was 65.7%.

For the compound `CC(=O)Oc1ccc2c(O)c(O[C@@H]3O[C@H](CO)[C@H](O)[C@H](O)[C@H]3O)c(=O)oc2c1` [compound 42], the inhibition in vivo at 100 mg/kg in assay [1] stood at 52.7%; in assay [2] it was 62.6%; in assay [3], 52.1%.

As to `CCCCCCOc1ccc2c(O)c(O[C@@H]3O[C@H](CO)[C@@H](O)[C@H](O)[C@H]3O)c(=O)oc2c1` [compound 43], the inhibition in vivo at 100 mg/kg in assay [1] was found to be 63.2%; in assay [2], 76.3%; in assay [3] it was 63.4%.

`CCCCCCOc1ccc2c(O)c(O[C@H]3O[C@H](CO)[C@@H](O)[C@H](O)[C@@H]3O)c(=O)oc2c1` [compound 44]: the figures for the inhibition in vivo at 100 mg/kg in assay [1], in assay [2] and in assay [3] were 53.5%, 71.2% and 58.2%, respectively.

As for `CC(=O)Oc1ccc2c(O)c(O[C@H]3O[C@H](CO)[C@@H](O)[C@H](O)[C@@H]3O)c(=O)oc2c1` [compound 45], the inhibition in vivo at 100 mg/kg amounted to 46.3% in assay [1], 46.5% in assay [2] and 46.3% in assay [3].

For `O=c1oc2cc(O)ccc2c(O[C@@H]2O[C@H](CO)[C@@H](O)[C@H](O)[C@H]2O)c1O` [compound 59, 3,7-dihydroxy-4-(β-D-glucopyranosyloxy)-2H-1-benzopyran-2-one], the values for the inhibition in vivo at 100 mg/kg in assay [1], in assay [2] and in assay [3] were 46.1%, 49.1% and 45.6%, respectively.

`COc1ccc2c(O[C@@H]3O[C@H](CO)[C@@H](O)[C@H](O)[C@H]3O)c(O)c(=O)oc2c1` [compound 61, 7-methoxy-3-hydroxy-4-(β-D-glucopyranosyloxy)-2H-1-benzopyran-2-one]: the inhibition in vivo at 100 mg/kg was 49.2% in assay [1], 53.3% in assay [2] and 50.7% in assay [3].

Regarding `CCCCOc1ccc2c(O[C@@H]3O[C@H](CO)[C@@H](O)[C@H](O)[C@H]3O)c(O)c(=O)oc2c1` [compound 63, 7-butoxy-3-hydroxy-4-(β-D-glucopyranosyloxy)-2H-1-benzopyran-2-one], the inhibition in vivo at 100 mg/kg in assay [1] is 57.4%; in assay [2] it was 64.7%; in assay [3], 57.1%.

Consider `COc1ccc2c(O[C@@H]3O[C@H](CO)[C@@H](O)[C@H](O)[C@H]3O)c(OC(C)=O)c(=O)oc2c1` [compound 65, 7-methoxy-3-acetoxy-4-(β-D-glucopyranosyloxy)-2H-1-benzopyran-2-one], for which the inhibition in vivo at 100 mg/kg in assay [1] was found to be 45.6%; in assay [2], 46.9%; in assay [3] it was 46.3%.

For the compound `CCCCCCCCOc1ccc2c(O[C@@H]3O[C@H](CO)[C@@H](O)[C@H](O)[C@H]3O)c(O)c(=O)oc2c1` [compound 66], the inhibition in vivo at 100 mg/kg is 63.8% in assay [1], 74.1% in assay [2] and 62.5% in assay [3].

Regarding `CCCCCCCCCCOc1ccc2c(O[C@@H]3O[C@H](CO)[C@@H](O)[C@H](O)[C@H]3O)c(O)c(=O)oc2c1` [compound 67], the inhibition in vivo at 100 mg/kg in assay [1] was 60.4%; in assay [2] it was 70.6%; in assay [3], 63.8%.

Consider `CCCCCCCCCCCCOc1ccc2c(O[C@@H]3O[C@H](CO)[C@@H](O)[C@H](O)[C@H]3O)c(O)c(=O)oc2c1` [compound 68], for which the inhibition in vivo at 100 mg/kg in assay [1] turned out to be 59.9%; in assay [2], 65.3%; in assay [3], 56.6%.

`CC(C)Oc1ccc2c(O[C@@H]3O[C@H](CO)[C@@H](O)[C@H](O)[C@H]3O)c(O)c(=O)oc2c1` [compound 69]: the values for the inhibition in vivo at 100 mg/kg in assay [1], in assay [2] and in assay [3] were 57.2%, 68.3% and 56.4%, respectively.

Take `CCC=CCCOc1ccc2c(O[C@@H]3O[C@H](CO)[C@@H](O)[C@H](O)[C@H]3O)c(O)c(=O)oc2c1` [compound 70]: the inhibition in vivo at 100 mg/kg in assay [1] was 58.5%; in assay [2] it was 67.7%; in assay [3], 57.6%.

Regarding `CC(C)=CCC/C(C)=C/COc1ccc2c(O[C@@H]3O[C@H](CO)[C@@H](O)[C@H](O)[C@H]3O)c(O)c(=O)oc2c1` [compound 71], the inhibition in vivo at 100 mg/kg in assay [1] was found to be 57.4%; in assay [2], 65.2%; in assay [3] it was 57.1%.

Take `O=C(Oc1ccc2c(O[C@@H]3O[C@H](CO)[C@@H](O)[C@H](O)[C@H]3O)c(O)c(=O)oc2c1)c1ccccc1` [compound 72]: the inhibition in vivo at 100 mg/kg in assay [1] came to 46.9%; in assay [2] it was 49.5%; in assay [3] it was 47.8%.

In the case of `COc1ccc2c(O[C@@H]3O[C@H](CO)[C@@H](O)[C@H](O)[C@H]3O)c(OC(=O)c3ccccc3)c(=O)oc2c1` [compound 73], the inhibition in vivo at 100 mg/kg in assay [1] worked out at 45.8%; in assay [2], 44.7%; in assay [3], 45.8%.

For the compound `CCCCOc1ccc2c(O[C@@H]3O[C@H](CO)[C@@H](O)[C@H](O)[C@H]3O)c(OC(C)=O)c(=O)oc2c1` [compound 74], the inhibition in vivo at 100 mg/kg in assay [1] came out at 46.8%; in assay [2], 55.4%; in assay [3], 47%.

For `CCCCCCCCCCCCOc1ccc2c(O[C@@H]3O[C@H](CO)[C@@H](O)[C@H](O)[C@H]3O)c(OC(C)=O)c(=O)oc2c1` [compound 75], the inhibition in vivo at 100 mg/kg in assay [1] came out at 43.3%; in assay [2], 45.2%; in assay [3], 46.2%.

As to `O=c1oc2cc(OCc3ccccc3)ccc2c(O[C@@H]2O[C@H](CO)[C@@H](O)[C@H](O)[C@H]2O)c1O` [compound 76], the values for the inhibition in vivo at 100 mg/kg in assay [1], in assay [2] and in assay [3] were 47.7%, 47.5% and 46.8%, respectively.

Regarding `O=c1oc2cc(O)ccc2c(O[C@H]2O[C@H](CO)[C@@H](O)[C@H](O)[C@@H]2O)c1O` [compound 77], the inhibition in vivo at 100 mg/kg came out at 42.7% in assay [1], 37.3% in assay [2] and 39.6% in assay [3].

Regarding `COc1ccc2c(O[C@H]3O[C@H](CO)[C@@H](O)[C@H](O)[C@@H]3O)c(O)c(=O)oc2c1` [compound 78], the inhibition in vivo at 100 mg/kg in assay [1] was found to be 46.2%; in assay [2], 50.8%; in assay [3], 43.1%.

On to `CCCCOc1ccc2c(O[C@H]3O[C@H](CO)[C@@H](O)[C@H](O)[C@@H]3O)c(O)c(=O)oc2c1` [compound 79], for which the inhibition in vivo at 100 mg/kg in assay [1] was found to be 47.1%; in assay [2], 50.3%; in assay [3] it was 46.3%.

Regarding `CCCCCCCCOc1ccc2c(O[C@H]3O[C@H](CO)[C@@H](O)[C@H](O)[C@@H]3O)c(O)c(=O)oc2c1` [compound 80], the inhibition in vivo at 100 mg/kg in assay [1] worked out at 50.5%; in assay [2], 63.3%; in assay [3], 50.3%.
